Data reported in US20130064901A1, “GENE EXPRESSION PROFILING FOR CLASSIFYING AND TREATING GASTRIC CANCER” (Agency for Science, Technology and Research, priority 2011, published 2013).
“Also recorded” adds a separate entry of the source. Read-outs that look alike come from different tables or passages of the source.

Legend:
GC subsets = conditions: INT-0116, ten-year update subgroup analysis; cited from earlier work
[1] = system: G-INT gastric cancer cell lines; assay: In vitro cell proliferation assay (MTS), G-INT cell lines; format: cell-based, human; conditions: for In vitro sensitivity of G-INT versus G-DIF cell lines: 28 cell lines (11 G-INT and 17 G-DIF) treated with increasing concentrations; for GI50: mean of 11 G-INT cell lines, drug concentration at which 50% growth inhibition is achieved, read-out: Mean GI-50 concentration
Method: (§1) Cell proliferation assays were performed using a tetrazolium compound-based colorimetric method. Adherent or semi-adherent cell lines with doubling times less than 48 hours were used in this analysis. The cell lines for which cell proliferation assays were performed are: YCC19, YCC18, TMK1, YCC2, CLS145, YCC9, YCC6, NUGC3, HGC-27, Fu97, Ist1, YCC7, YCC16, Hs746T, MKN45, KatoIII, AGS, SNU719, AZ521, YCC1, MKN1, YCC11, IM95, MKN7, YCC3, YCC10, SCH and N87. Cell proliferation assays were performed using a tetrazolium compound-based colorimetric method (MTS kit, Promega, Madison, Wis., USA) according to the manufacturer's instructions and measured using an EnVision 2104 multilabel plate reader (Perkin Elmer, Finland) at 490 nm. Inhibition of cell growth by drugs was also visually confirmed under microscopy. Drugs used include cisplatin (Sigma, 479306-1G), oxaliplatin (Sigma, O9512), 5-Fluorouracil (Sigma, F6627-1G).
(§2) Of the 37 cell lines, 28 cell lines (11 G-INT and 17 G-DIF) had growth characteristics suitable for in vitro drug sensitivity testing. 5-FU, oxaliplatin and cisplatin are drugs presently employed in the adjuvant and 1st line palliative treatment of GC. The 28 cell lines were treated with increasing concentrations of these drugs.

[2] = system: G-DIF gastric cancer cell lines; assay: In vitro cell proliferation assay (MTS), G-DIF cell lines; format: cell-based, human; conditions: mean of 17 G-DIF cell lines, drug concentration at which 50% growth inhibition is achieved, read-out: Mean GI-50 concentration
Method: as §1, §2

GI50 ([1]; Homo sapiens) [µM]	GI50 ([2]; Homo sapiens) [µM]	SMILES	Benefit from 5-FU therapy by GC subset (GC subsets)	In vitro sensitivity of G-INT versus G-DIF cell lines [1]	GI50 [1] [µM]	GI50 [2] [µM]
5.2	23.2	O=c1[nH]cc(F)c(=O)[nH]1 [5-FU, 5-Fluorouracil]	all GC subsets benefited from 5-FU therapy except for cases with diffuse histology	G-INT cell lines were significantly more sensitive	–	–
–	–	N.N.[Cl][Pt][Cl] [cisplatin]	–	G-DIF cell lines were more sensitive; also recorded: more resistant	38.6	13.3
–	–	O=C1[O][Pt]2([NH][C@@H]3CCCC[C@H]3[NH]2)[O]C1=O [oxaliplatin]	–	G-INT cell lines were significantly more sensitive	1.33	5.49
